From patent US9629850B2, “Combination of MEK inhibitors and selective inhibitors of Aurora A kinase” (priority 2011, dated 2017)
Read-outs that look alike come from different tables or passages of the source.

Assays:
SKMEL-2 [1] = assay: Cells with greater than 4N DNA by flow cytometry, SKMEL-2
Method: (§1) A2780, A375, PC-3 and SK-MEL-2 cells were seeded at 2×10^4 cells/ml and grown on 6 well cell culture dishes overnight at 37° C. with 5% CO2. […] At the relevant time points cells were harvested with trypsin ethylenediaminetetraacetic acid (EDTA) 1× (Gibco/Invitrogen [Carlsbad, Calif., USA]), washed once with phosphate-buffered saline (PBS), fixed in 70% ethanol and stored at −20° C. for at least 24 hours. The cells were washed once more in PBS, then resuspended in 50 μg/ml propidium iodide (Invitrogen, [Carlsbad, Calif., USA]) and 30 μg/ml ribonuclease (RNAse) A (Sigma [St Louis, Mo., USA]) in PBS and incubated for 30 minutes at room temperature protected from light. Cell cycle distributions were determined by measuring deoxyribonucleic acid (DNA) content using flow cytometry on a FACS Canto II flow cytometer (Becton Dickinson [San Jose, Calif., USA]) and samples were analyzed using [sequence] software (Becton Dickinson [San Jose, Calif., USA]).

A2780 [2] = assay: BrdU proliferation assay, A2780; settings: Homo sapiens, A2780, 96 h
Method: (§2) A2780, A375, PC-3, and SK-MeI-2 human tumor cell lines were seeded at 2.0×10^3, 1.0×10^3, 4.0×10^3 and 2.0×10^3 cells per well, respectively, in 80 μL of the appropriate cell culture growth media. Plating densities were chosen to ensure optimal linear growth over 120 hours. After 20 hours, 10 μL of each compound was added to the cells in a matrix with dose responses of both agents. […] Each matrix was generated in triplicate with each replicate on a separate plate.
(§3) Cell proliferation of each cell line was measured using the cell proliferation enzyme-linked immunosorbent assay (ELISA), 5-bromo-2-deoxyuridine (BrdU) colorimetric kit according to the manufacturer's instructions (Roche [Mannheim, Germany]). The assay measures cell proliferation by quantifying BrdU incorporation into replicating deoxyribonucleic acid (DNA). Briefly, each well was incubated with 10 μL of BrdU labeling reagent for 2 hours at 37° C. in a humidified cell culture chamber. After aspiration of the labeling media, the plates were wrapped in foil and kept at 4° C. to assay at a future time. The cells were fixed and denatured by adding 100 µL of ethanol to each well and incubated for 30 minutes at room temperature. The ethanol was aspirated and 50 μl of blocking reagent (Roche [Mannheim, Germany]) was added to the cells and incubated for 30 minutes. 100 μL of peroxidase-conjugated anti BrdU antibody ([anti-BrdU-POD]; 1:100 in antibody dilution buffer) was added to the cells. The cells were incubated with the antibody for 120 minutes at room temperature. The cells were then washed 2× with 150 μL of wash buffer per well and 100 μL of tetramethyl benzidine was then added. The cells were incubated for 15 to 30 minutes at room temperature prior to spectrophotometric analysis. A SpectraMax Plus 384 plate reader (Molecular Devices [Sunny Vale Calif., USA]) or WALLAC 1420 Workstation (Perkin Elmer [Turku, Finland]) were used to measure the absorbance of each well at 395 or 405 nm, respectively, depending on the machine used. The A2780 and A375 cell lines were measured using the SpectraMax Plus at 395 nm, while the PC-3 and SK-Mel-2 cell lines were measured using the WALLAC 1420 Workstation at 405 nm. Analysis of the data was performed using GraphPad Prism 5.0.

PC3 = assay: Cells with greater than 4N DNA by flow cytometry, PC3
Method: as §1

A2780 cells = assay: Quantification of sub-diploid cells by flow cytometry; settings: A2780, 96 hours, single agents: TAK-733 50 nM or 200 nM, MLN8237 20 nM (50 nM MLN8237 sample was the exception), FIG. 2A
Method: Sub-diploid cells were gated as those with a lower level of propidium iodide fluorescence than cells with 2N DNA content.
as §1

PC-3 = assay: BrdU proliferation assay, PC-3; settings: Homo sapiens, PC-3, 96 h
Method: as §2, §3

SKMEL-2 [3] = assay: BrdU proliferation assay, SKMEL-2; settings: Homo sapiens, SK-MEL-2, 96 h
Method: as §2, §3

A2780 [4] = assay: Cells with greater than 4N DNA by flow cytometry, A2780
Method: as §1

A375 [5] = assay: Cells with greater than 4N DNA by flow cytometry, A375
Method: as §1

[6] = test system: NCI-H23 Non Small Cell Lung Carcinoma Xenografts; assay: Anti-tumor activity in female nude mice bearing NCI-H23 xenografts; settings: for TGI: Day 99; for TFS (tumor-free survivors): Day 135, n=8
Method: MLN8237 was prepared in 10% hydroxypropyl-beta-cyclodextrin (HP-β-CD) (Sigma, St. Louis, Mo., USA)+1% NaHCO3 (Sigma, St. Louis, Mo., USA) every 5 days and stored at approximately 25° C. in the dark.
5.0×10^6 NCI-H23 cells/animal (0.1 ml injection volume) were implanted SC into the right flank of Balb/c nude mice.
Experimental Design: 7-9 week old female Balb/c nude mice were inoculated subcutaneously in the flank (cell suspension) with 5.0×10^6 NCI-H23 cells. Tumor growth was monitored with vernier calipers. The mean tumor volume was calculated using the formula V=W^2×L/2. When the mean tumor volume (MTV) reached approximately 105 mm^3, the animals were randomized into 8 treatment groups (n=8/group). […] Tumor growth and body weight were measured twice per week. Tumor growth inhibition and body weight change were calculated on Day 99 of treatment.
Antitumor activity was determined by calculating the percent TGI ([mean tumor volume of the control group−mean tumor volume of a treated group]/mean tumor volume of the control group) on Day 99. Treatment started on Day 1 for 21 days. […] The use of Day 99 allows us to evaluate tumor response and statistically compare the ΔAUC for each group over the regrowth period.
Additional endpoints used to evaluate efficacy were: complete and partial tumor response CR and PR), and the number of tumor-free survivors (TFS) at the end of the study.
Statistical Analysis: Statistical analysis was performed with a linear mixed effects regression model. This model takes into account the differences in trends of tumor growth between control and treated samples. Differences among mice were treated as random effects, and a compound symmetry covariance structure was used to model the variability between repeated tumor measurements on each mouse. Treatment comparisons were performed by using the fitted curves from the model to calculate the changes in the areas under the tumor volume-versus-time curves (ΔAUCs). The significance of the ΔAUC was assessed using permutation testing. P-values <0.05 were considered significant.
The change in AUC relative to the control was calculated for both single agent treatment groups as well as the combination group.

[7] = test system: Panc-1 Human Pancreatic Carcinoma Xenografts; assay: Antitumor activity in female nude mice bearing Panc-1 xenografts; settings: MLN8237 30 mg/kg QD for 21 days (oral per title; b268 prints SC); Day 63; p<0.001 vs vehicle
Method: Experimental Design: Low passage (passage TC08) Panc-1 cells (ATCC, Manassas, Va., USA) were grown in Roswell Park Memorial Institute (RPMI)-1640 (ATCC, Manassas, Va., USA) 10% Fetal Bovine Serum (PAA Laboratories PTY LTD, Morningside, QLD, Australia) and supplied at a concentration of 5.0×10^7 cells/mLl in Dulbecco's phosphate-buffered saline (DPBS) (Invitrogen-Gibco, Grand Island, N.Y., USA). Cells were mixed 1:1 with Matrigel support (BD Biosciences, Bedford, Mass., USA) and 5.0×10^6 Panc-1 cells/animal (0.2 mL injection volume) were implanted SC into the right flank of female Balb/c nude mice.
Tumor growth was monitored twice weekly using calipers and the mean tumor volume was calculated using the formula (0.5×[length×width^2]). […] Tumor size and body weight were measured twice weekly and the study was terminated on Day 63 when tumors in the control group reached approximately 1127.8 mm^3. Tumor volumes and BW of animals in the combination treatment group were monitored up to Day 111.
Antitumor activity was determined by calculating the percent TGI ([mean tumor volume of the control group—mean tumor volume of a treated group]/mean tumor volume of the control group) on Day 63. Treatment started on Day 1 and lasted through Day 21. Maximum percent BWL was evaluated during the treatment period (Day 1-Day 21). […]

A375 [8] = assay: BrdU proliferation assay, A375; settings: Homo sapiens, A-375, 96 h
Method: as §2, §3

[9] = MLN8237 30 mg/kg PO for 21 days, mice of 8

COc1cc(Nc2ncc3c(n2)-c2ccc(Cl)cc2C(c2c(F)cccc2OC)=NC3)ccc1C(=O)[O-].O.[Na+] [MLN8237]
Percentage of cells with greater than 4N DNA (SKMEL-2 [1]; SKMEL-2, 24 Hr, DMSO 3.1): 14.5% | Percentage of cells with greater than 4N DNA (SKMEL-2 [1]; SKMEL-2, 48 Hr, DMSO 2.7): 36.4% | IC50 (A2780 [2]; read-out: MLN8237 IC50, A2780, TAK-733 0.0 nM): 43 nM | IC50 (A2780 [2]; read-out: MLN8237 IC50, A2780, TAK-733 0.64 nM): 34 nM | IC50 (A2780 [2]; read-out: MLN8237 IC50, A2780, TAK-733 3.2 nM): 29 nM | IC50 (A2780 [2]; read-out: MLN8237 IC50, A2780, TAK-733 16 nM): 19 nM | IC50 (A2780 [2]; read-out: MLN8237 IC50, A2780, TAK-733 80 nM): 11 nM | IC90 (A2780 [2]; read-out: MLN8237 IC90, A2780, TAK-733 0.0 nM): > 5000 nM | IC90 (A2780 [2]; read-out: MLN8237 IC90, A2780, TAK-733 0.64 nM): > 5000 nM | IC90 (A2780 [2]; read-out: MLN8237 IC90, A2780, TAK-733 3.2 nM): 288 nM | IC90 (A2780 [2]; read-out: MLN8237 IC90, A2780, TAK-733 16 nM): 28 nM | IC90 (A2780 [2]; read-out: MLN8237 IC90, A2780, TAK-733 80 nM): 46 nM | Percentage of cells with greater than 4N DNA (PC3; PC3, 24 Hr, DMSO 10.5): 21% | Percentage of cells with greater than 4N DNA (PC3; PC3, 48 Hr, DMSO 10.7): 30.5% | percentage of sub-diploid cells relative to DMSO (A2780 cells): neither TAK-733 nor MLN8237 caused appreciable increases | IC50 (PC-3; read-out: MLN8237 IC50, PC-3, TAK-733 0.0 nM): 134 nM | IC50 (PC-3; read-out: MLN8237 IC50, PC-3, TAK-733 16 nM): 84 nM | IC50 (PC-3; read-out: MLN8237 IC50, PC-3, TAK-733 80 nM): 93 nM | IC50 (PC-3; read-out: MLN8237 IC50, PC-3, TAK-733 400 nM): 100 nM | IC50 (PC-3; read-out: MLN8237 IC50, PC-3, TAK-733 2000 nM): 74 nM | IC90 (PC-3; read-out: MLN8237 IC90, PC-3, TAK-733 0.0 nM): > 5000 nM | IC90 (PC-3; read-out: MLN8237 IC90, PC-3, TAK-733 16 nM): > 5000 nM | IC90 (PC-3; read-out: MLN8237 IC90, PC-3, TAK-733 80 nM): 1060 nM | IC90 (PC-3; read-out: MLN8237 IC90, PC-3, TAK-733 400 nM): 890 nM | IC90 (PC-3; read-out: MLN8237 IC90, PC-3, TAK-733 2000 nM): 569 nM | IC50 (SKMEL-2 [3]; read-out: MLN8237 IC50, SKMEL-2, TAK-733 0.0 nM): 67 nM | IC50 (SKMEL-2 [3]; read-out: MLN8237 IC50, SKMEL-2, TAK-733 0.01 nM): 66 nM | IC50 (SKMEL-2 [3]; read-out: MLN8237 IC50, SKMEL-2, TAK-733 0.1 nM): 54 nM | IC50 (SKMEL-2 [3]; read-out: MLN8237 IC50, SKMEL-2, TAK-733 1 nM): 48 nM | IC50 (SKMEL-2 [3]; read-out: MLN8237 IC50, SKMEL-2, TAK-733 10 nM): 16 nM | IC90 (SKMEL-2 [3]; read-out: MLN8237 IC90, SKMEL-2, TAK-733 0.0 nM): > 5000 nM | IC90 (SKMEL-2 [3]; read-out: MLN8237 IC90, SKMEL-2, TAK-733 0.01 nM): > 5000 nM | IC90 (SKMEL-2 [3]; read-out: MLN8237 IC90, SKMEL-2, TAK-733 0.1 nM): > 5000 nM | IC90 (SKMEL-2 [3]; read-out: MLN8237 IC90, SKMEL-2, TAK-733 1 nM): > 5000 nM | IC90 (SKMEL-2 [3]; read-out: MLN8237 IC90, SKMEL-2, TAK-733 10 nM): 309 nM | Percentage of cells with greater than 4N DNA (A2780 [4]; A2780, 24 Hr, DMSO 1.7): 9.6% | Percentage of cells with greater than 4N DNA (A2780 [4]; A2780, 48 Hr, DMSO 2.2): 13% | Percentage of cells with greater than 4N DNA (A375 [5]; A375, 24 Hr, DMSO 0.9): 16% | Percentage of cells with greater than 4N DNA (A375 [5]; A375, 48 Hr, DMSO 1.4): 18.6% | TGI ([6]; MLN8237 20 mg/kg PO QD for 21 days, p>0.05 vs control): 43.4% | TFS (tumor-free survivors) ([6]; MLN8237 20 mg/kg PO QD for 21 days): 2 | CR (complete tumor response) ([6]; MLN8237 20 mg/kg PO QD for 21 days, mice of 8): 2 of 8 | TGI ([6]; MLN8237 30 mg/kg PO for 21 days, p<0.05 vs vehicle): 73.3% | TFS (tumor-free survivors) ([6]; MLN8237 30 mg/kg PO for 21 days): 2 | CR (complete tumor response) [6, 9]: 4 of 8 | PR (partial tumor response) [6, 9]: 4 of 8 | TGI [7]: −6.4% | IC50 (A375 [8]; read-out: MLN8237 IC50, A375, TAK-733 0.0 nM): 59 nM | IC50 (A375 [8]; read-out: MLN8237 IC50, A375, TAK-733 0.0001 nM): 73 nM | IC50 (A375 [8]; read-out: MLN8237 IC50, A375, TAK-733 0.001 nM): 63 nM | IC50 (A375 [8]; read-out: MLN8237 IC50, A375, TAK-733 0.01 nM): 58 nM | IC50 (A375 [8]; read-out: MLN8237 IC50, A375, TAK-733 0.1 nM): 62 nM | IC50 (A375 [8]; read-out: MLN8237 IC50, A375, TAK-733 1 nM): 65 nM | IC90 (A375 [8]; read-out: MLN8237 IC90, A375, TAK-733 0.0 nM): 530 nM | IC90 (A375 [8]; read-out: MLN8237 IC90, A375, TAK-733 0.0001 nM): 554 nM | IC90 (A375 [8]; read-out: MLN8237 IC90, A375, TAK-733 0.001 nM): 408 nM | IC90 (A375 [8]; read-out: MLN8237 IC90, A375, TAK-733 0.01 nM): 882 nM | IC90 (A375 [8]; read-out: MLN8237 IC90, A375, TAK-733 0.1 nM): 325 nM | IC90 (A375 [8]; read-out: MLN8237 IC90, A375, TAK-733 1 nM): > 5000 nM
